Assay results as given in US11286234B2, “Phenyl urea derivatives as N-formyl peptide receptor modulators” (Allergan, Inc., priority 2016, dated 2022).

Columns and labels:
[1] = biological target: T1, FPR1 (Homo sapiens, UniProt P21462); experiment: Compound-induced calcium activity (FLIPR Tetra) in CHO-Gα16 cells stably expressing FPR1; type: cell-based; settings: for EC50 / Emax: CHO-Gα16 cells stably expressing FPR1; for EC50: calcium activity, tested 0.61 to 10,000 nM, read-out: FPR1 Ga16-CHO EC50; for Emax: efficacy value in brackets, read-out: FPR1 Ga16-CHO (% eff); for Ratio FPR2:FPR1 (EC50): ratio of the EC50 for agonizing FPR2 to the EC50 for agonizing FPR1
T1 construct: expressed in transfected cells
T1 sequence (P21462 1-350): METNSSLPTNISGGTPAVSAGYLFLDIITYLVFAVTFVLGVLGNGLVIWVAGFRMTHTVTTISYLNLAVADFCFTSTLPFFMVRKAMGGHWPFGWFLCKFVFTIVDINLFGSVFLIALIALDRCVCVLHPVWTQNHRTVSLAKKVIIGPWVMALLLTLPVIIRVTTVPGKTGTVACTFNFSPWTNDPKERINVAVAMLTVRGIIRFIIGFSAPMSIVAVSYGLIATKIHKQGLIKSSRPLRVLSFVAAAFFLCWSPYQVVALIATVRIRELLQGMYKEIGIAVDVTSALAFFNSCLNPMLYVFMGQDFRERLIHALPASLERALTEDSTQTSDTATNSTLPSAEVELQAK
Procedure: (§1) CHO-Gα16 cells stably expressing FPR1 or FPR2 were cultured in: Ham's F12 nutrient media, 10% fetal bovine serum, 1% PSA (penicillin, streptomycin, amphotericin B antiobiotic/antimycotic), 400 μg/ml geneticin and 50 μg/ml hygromycin. In general, the day before the experiment, 18,000 cells/well were plated in a 384-well clear bottom poly-D-lysine coated plate. The following day the screening compound-induced calcium activity was assayed on the FLIPR^Tetra. The drug plates were prepared in 384-well microplates using the EP3 and the MultiPROBE robotic liquid handling systems. Compounds were tested at concentrations ranging from 0.61 to 10,000 nM. Results are expressed as EC50 (nM) and efficacy values.

[2] = biological target: T2, FPR2 (Homo sapiens, UniProt P25090); experiment: Compound-induced calcium activity (FLIPR Tetra) in CHO-Gα16 cells stably expressing FPR2; type: cell-based; settings: for EC50: calcium activity, tested 0.61 to 10,000 nM, read-out: FPR2 Ga16-CHO EC50; for Emax: efficacy value in brackets, read-out: FPR2 Ga16-CHO (% eff)
T2 construct: expressed in transfected cells
T2 sequence (P25090 1-351): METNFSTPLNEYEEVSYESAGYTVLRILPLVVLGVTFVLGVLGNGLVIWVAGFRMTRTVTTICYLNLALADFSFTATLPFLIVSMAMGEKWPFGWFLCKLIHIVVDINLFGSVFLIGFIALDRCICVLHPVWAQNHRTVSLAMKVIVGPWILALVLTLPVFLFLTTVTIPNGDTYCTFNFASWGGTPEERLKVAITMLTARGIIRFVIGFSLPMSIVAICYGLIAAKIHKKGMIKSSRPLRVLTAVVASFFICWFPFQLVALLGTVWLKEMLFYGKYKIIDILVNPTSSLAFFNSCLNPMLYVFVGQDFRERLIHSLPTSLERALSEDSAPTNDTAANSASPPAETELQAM
Procedure: as §1

SMILES | EC50 [1] | Emax [1] | Ratio FPR2:FPR1 (EC50) [1] | EC50 [2] | Emax [2]
COC(=O)C(CNC(=O)Nc1ccc(Br)cc1)CC(C)C (stereo not drawn) [Compound 1, Methyl 2-[({[(4-bromophenyl)amino]carbonyl}amino)methyl]-4-methylpentanoate] | 4.03 µM | 72% | 0.17 | 0.678 µM | 47%
CC(C)CC(CNC(=O)Nc1ccc(Br)cc1)C(=O)NCC(=O)O (stereo not drawn) [Compound 36, ({2-[({[(4-bromophenyl)amino]carbonyl}amino)methyl]-4-methylpentanoyl}amino)acetic acid] | 0.156 µM | 95% | 6.4 | 1 µM | 43%
CC(CNC(=O)Nc1ccc(Br)cc1)C(=O)O (stereo not drawn) [Compound 16, 3-(3-(4-Bromophenyl)ureido)-2-methylpropanoic acid] | 2.85 µM | 84% | 1.1 | 3.07 µM | 62%
O=C(NCC(Cc1ccccc1)C(=O)O)Nc1ccc(Br)cc1 (stereo not drawn) [Compound 15, 2-Benzyl-3-(3-(4-bromophenyl)ureido)propanoic acid] | 0.067 µM | 94% | 5.2 | 0.351 µM | 93%
CC(C)CC(CNC(=O)Nc1ccc(Br)cc1F)C(=O)O (stereo not drawn) [Compound 10, 2[({[(4-Bromo-2-fluorophenyl)amino]carbonyl}amino)methyl]-4-methylpentanoic acid] | 0.113 µM | 98% | 17 | 1.91 µM | 94%
COC(=O)C(CNC(=O)Nc1ccc(Br)cc1F)CC(C)C (stereo not drawn) [Compound 4, Methyl 2[({[(4-bromo-2-fluorophenyl)amino]carbonyl}amino)methyl]-4-methylpentanoate] | > 19 µM | 21% | <1 | 1.53 µM | 98%
O=C(Nc1ccc(Br)cc1)NC1CCCCCCC1C(=O)O (stereo not drawn) [Compound 20, 2-(3-(4-Bromophenyl)ureido)cyclooctanecarboxylic acid] | 0.051 µM | – | 1.6 | 0.082 µM | 97%
CC(C)CC(CNC(=O)Nc1ccc(Cl)cc1)C(=O)O (stereo not drawn) [Compound 9, 2-[({[(4-Chlorophenyl)amino]carbonyl}amino)methyl]-4-methylpentanoic acid] | 0.163 µM | 95% | 18 | 3 µM | –
COC(=O)C(CNC(=O)Nc1ccc(OC(F)(F)F)cc1)CC(C)C (stereo not drawn) [Compound 6, Methyl 4-methyl-2-{[({[4-(trifluoromethoxy)phenyl]amino}carbonyl)amino]methyl}pentanoate] | > 15 µM | 39% | – | > 1 µM | 67%
COC(=O)C(CNC(=O)CNC(=O)Nc1ccc(Br)cc1)CC(C)C (stereo not drawn) [Compound 38] | 2.6 µM | 77% | 0.83 | 2.17 µM | 80%
CC(C)CC(CNC(=O)Nc1ccc(OC(F)(F)F)cc1)C(=O)O (stereo not drawn) [Compound 12, 4-Methyl-2-{[({[4-(trifluoromethoxy)phenyl]amino}carbonyl)amino]methyl}pentanoic acid] | 1.18 µM | 81% | 6.9 | 8.09 µM | 40%
O=C(Nc1ccc(Br)cc1)N[C@@H]1CCCC[C@H]1C(=O)O (relative stereo) [Compound 18, (1R*,2R*)-2-(3-(4-Bromophenyl)ureido)cyclohexanecarboxylic acid] | 0.047 µM | 101% | 5.2 | 0.246 µM | 98%
CC(C)CC(CNC(=O)Nc1ccc(Br)cc1)C(=O)NCc1nnn[nH]1 (stereo not drawn) [Compound 33, N-((1H-tetrazol-5-yl)methyl)-2-((3-(4-bromophenyl)ureido)methyl)-4-methylpentanamide] | 0.013 µM | 95% | 10 | 0.13 µM | 98%
CC(C)C(CNC(=O)Nc1ccc(Br)cc1)C(=O)O (stereo not drawn) [Compound 13, 2-((3-(4-Bromophenyl)ureido)methyl)-3-methylbutanoic acid] | 2.19 µM | 97% | 1.2 | 2.67 µM | 83%
CCCC(CNC(=O)Nc1ccc(Br)cc1)C(=O)O (stereo not drawn) [Compound 14, 2-((3-(4-Bromophenyl)ureido)methyl)pentanoic acid] | 0.243 µM | 99% | 5.4 | 1.32 µM | 83%
CC(C)CC(CNC(=O)Nc1ccc(Br)cc1)C(N)=O (stereo not drawn) [Compound 35, 2-((3-(4-bromophenyl)ureido)methyl)-4-methylpentanamide] | 7.09 µM | 80% | 0.14 | 0.975 µM | 95%
CC(C)CC(CNC(=O)Nc1ccc(C(F)(F)F)cc1)C(=O)O (stereo not drawn) [Compound 8, 4-Methyl-2-{[({[4-(trifluoromethyl)phenyl}amino}carbonyl)amino]methyl}pentanoic acid] | 0.054 µM | 105% | 25 | 1.35 µM | 92%
COc1ccc(NC(=O)NCC(CC(C)C)C(=O)O)cc1 (stereo not drawn) [Compound 11, 2-[({[(4-methoxyphenyl)amino]carbonyl}amino)methyl]-4-methylpentanoic acid] | 1.22 µM | 92% | – | > 1 µM | 56%
CC(C)CC(CCNC(=O)Nc1ccc(Br)cc1)S(=O)(=O)O (stereo not drawn) [Compound 21, 1-(3-(4-Bromophenyl)ureido)-5-methylhexane-3-sulfonic acid] | 0.007 µM | 99% | 179 | 1.26 µM | 89%
CCC(CNC(=O)Nc1ccc(Br)cc1)C(=O)O (stereo not drawn) [Compound 17, 2-((3-(4-Bromophenyl)ureido)methyl)butanoic acid] | 2.15 µM | 85% | 1.1 | 2.27 µM | 71%
CC(C)CC(CNC(=O)Nc1ccc(Br)cc1)C(=O)N(C)CC(=O)O (stereo not drawn) [Compound 37, 2-(2-((3-(4-bromophenyl)ureido)methyl)-N,4-dimethylpentanamido)acetic acid] | 0.055 µM | 96% | 0.22 | 0.012 µM | 104%
CC(C)CC(CNC(=O)Nc1ccc(Br)cc1)C(=O)O (stereo not drawn) [Compound 7, 2-[({[(4-Bromophenyl)amino]carbonyl}amino)methyl]-4-methylpentanoic acid] | 0.035 µM | 97% | 37 | 1.3 µM | 90%
CC(C)CC(CNC(=O)Nc1ccc(Br)cc1)C(=O)N(C)C (stereo not drawn) [Compound 34, 2-((3-(4-bromophenyl)ureido)methyl)-N,N,4-trimethylpentanamide] | 6.32 µM | 69% | <1 | 0.314 µM | 92%
CC(C)CC(CNC(=O)Nc1ccc(Br)cc1)C(=O)N(C)CC(=O)OC(C)(C)C (stereo not drawn) [Compound 32, tert-Butyl 2-(2-((3-(4-bromophenyl)ureido)methyl)-N,4-dimethylpentanamido)acetate] | 2.51 µM | 73% | 0.41 | 1.03 µM | 89%
COC(=O)C(CNC(=O)Nc1ccc(C(F)(F)F)cc1)CC(C)C (stereo not drawn) [Compound 2, Methyl 4-methyl-2-{[({[4-(trifluoromethyl)phenyl]amino}carbonyl)amino]methyl}pentanoate] | 10.4 µM | 57% | 0.21 | 2.2 µM | 78%
CC(C)CC(CNC(=O)CNC(=O)Nc1ccc(Br)cc1)C(=O)O (stereo not drawn) [Compound 39, 2-((2-(3-(4-Bromophenyl)ureido)acetamido)methyl)-4-methylpentanoic acid] | 0.019 µM | 96% | 88 | 1.68 µM | 77%
